Measured values taken from PubChem BioAssay (NCI).
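Five concentrations, 48 hours, 96-well plates. GI50 = concentration required for 50% inhibition of growth. TGI: concentration producing complete growth inhibition.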

Legend:
Assay in all cases: growth of human tumour cells (NCI), 48 h
[1] = tested on: HS 578T breast
[2] = tested on: PC-3 prostate
[3] = tested on: SW-620 colon
[4] = tested on: MDA-MB-435
[5] = tested on: ACHN renal
[6] = tested on: A549 NSCLC
[7] = tested on: HT29 colon
[8] = tested on: SK-MEL-2 melanoma
[9] = tested on: NCI/ADR-RES ovarian
[10] = tested on: EKVX NSCLC
[11] = tested on: A498 renal
[12] = tested on: HL-60(TB) leukemia
[13] = tested on: SK-MEL-28 melanoma
[14] = tested on: DU-145 prostate
[15] = tested on: K-562 leukemia
[16] = tested on: HOP-92 NSCLC
[17] = tested on: RPMI-8226 leukemia
[18] = tested on: SK-MEL-5 melanoma
[19] = tested on: HOP-62 NSCLC
[20] = tested on: NCI-H23 lung
[21] = tested on: T-47D breast
[22] = tested on: NCI-H522 lung
[23] = tested on: UACC-62 melanoma
[24] = tested on: SN12C renal
[25] = tested on: KM12 colon
[26] = tested on: CCRF-CEM leukemia
[27] = tested on: 786-0 renal
[28] = tested on: SF-268 CNS
[29] = tested on: SK-OV-3 ovarian
[30] = tested on: UACC-257 melanoma
[31] = tested on: MOLT-4 leukemia
[32] = tested on: NCI-H226 lung
[33] = tested on: HCT-116 colon
[34] = tested on: U251 CNS
[35] = tested on: SF-539 CNS
[36] = tested on: UO-31 renal
[37] = tested on: LOX IMVI melanoma
[38] = tested on: OVCAR-8 ovarian
[39] = tested on: HCT-15 colon
[40] = tested on: RXF 393 renal
[41] = tested on: BT-549 breast
[42] = tested on: MALME-3M melanoma
[43] = tested on: MDA-MB-231 breast
[44] = tested on: IGROV1 ovarian
[45] = tested on: COLO 205 colon
[46] = tested on: HCC-2998 colon
[47] = tested on: OVCAR-5 ovarian
[48] = tested on: OVCAR-4 ovarian
[49] = tested on: SNB-19 CNS
[50] = tested on: TK-10 renal
[51] = tested on: SNB-75 CNS
[52] = tested on: SR leukemia
[53] = tested on: MCF7 breast
[54] = tested on: NCI-H460 lung
[55] = tested on: M14 melanoma

CN(C)CCOc1ccc(/C(=C(/CCCCCCCCCC[P+](c2ccccc2)(c2ccccc2)c2ccccc2)c2ccccc2)c2ccccc2)cc1
GI50 [1]: 0.318 µM | TGI [1]: 1.79 µM | GI50 [2]: 0.0304 µM | TGI [2]: 0.184 µM | GI50 [3]: 0.28 µM | TGI [3]: 1.32 µM | GI50 [4]: 0.223 µM | TGI [4]: 0.899 µM | GI50 [5]: 0.382 µM | TGI [5]: 1.47 µM | GI50 [6]: 0.0772 µM | TGI [6]: 1.66 µM | GI50 [7]: 0.127 µM | TGI [7]: 1.4 µM | GI50 [8]: 0.28 µM | TGI [8]: 0.864 µM | GI50 [9]: 1.32 µM | TGI [9]: 3.78 µM | GI50 [10]: 0.274 µM | TGI [10]: 1.4 µM | GI50 [11]: 0.224 µM | TGI [11]: 0.774 µM | GI50 [12]: 0.0575 µM | TGI [12]: 0.319 µM | GI50 [13]: 0.364 µM | TGI [13]: 1.79 µM | GI50 [14]: 0.258 µM | TGI [14]: 1.35 µM | GI50 [15]: 0.0389 µM | TGI [15]: > 100 µM | GI50 [16]: 0.0297 µM | TGI [16]: 0.208 µM | GI50 [17]: 0.0273 µM | TGI [17]: 0.172 µM

Cc1cn2c(/C=C3/C(=O)N(C)c4ccccc43)c(C)nc2s1
GI50 [18]: 4.71 µM | TGI [18]: 25.5 µM | GI50 [1]: 9.59 µM | TGI [1]: 50.4 µM | GI50 [2]: 16.5 µM | TGI [2]: > 100 µM | GI50 [3]: 4.3 µM | TGI [3]: > 100 µM | GI50 [19]: 30 µM | TGI [19]: > 100 µM | GI50 [20]: 16.2 µM | TGI [20]: > 100 µM | GI50 [21]: 4.49 µM | TGI [21]: > 100 µM | GI50 [5]: 25.9 µM | TGI [5]: > 100 µM | GI50 [6]: 12.8 µM | TGI [6]: > 100 µM | GI50 [22]: 5.04 µM | TGI [22]: 30.2 µM | GI50 [23]: 12.2 µM | TGI [23]: 97.9 µM | GI50 [7]: 3.58 µM | TGI [7]: > 100 µM | GI50 [8]: 5.33 µM | TGI [8]: 58.3 µM | GI50 [9]: 3.4 µM | TGI [9]: 41 µM | GI50 [10]: 15.8 µM | TGI [10]: > 100 µM | GI50 [24]: 25.5 µM | TGI [24]: > 100 µM | GI50 [11]: 11.9 µM | TGI [11]: 79.5 µM | GI50 [12]: 2.42 µM | TGI [12]: 6.19 µM | GI50 [25]: 3.38 µM | TGI [25]: > 100 µM | GI50 [26]: 14.5 µM | TGI [26]: > 100 µM | GI50 [27]: 20.1 µM | TGI [27]: > 100 µM | GI50 [13]: 14.2 µM | TGI [13]: 53.4 µM | GI50 [28]: 22.1 µM | TGI [28]: > 100 µM | GI50 [29]: 6.87 µM | TGI [29]: 31.9 µM | GI50 [30]: 67.8 µM | TGI [30]: > 100 µM | GI50 [31]: 4.84 µM | TGI [31]: 26.8 µM | GI50 [32]: 40.5 µM | TGI [32]: > 100 µM | GI50 [33]: 5.02 µM | TGI [33]: > 100 µM | GI50 [14]: 27.4 µM | TGI [14]: > 100 µM | GI50 [34]: 8.08 µM | TGI [34]: > 100 µM | GI50 [35]: 10.7 µM | TGI [35]: 52.9 µM | GI50 [36]: 17.2 µM | TGI [36]: > 100 µM | GI50 [37]: 11.6 µM | TGI [37]: > 100 µM | GI50 [38]: 29.2 µM | TGI [38]: > 100 µM | GI50 [39]: 5.25 µM | TGI [39]: > 100 µM | GI50 [15]: 2.23 µM | TGI [15]: 7.15 µM | GI50 [40]: 53.8 µM | TGI [40]: > 100 µM | GI50 [41]: 10.8 µM | TGI [41]: > 100 µM | GI50 [42]: 54.3 µM | TGI [42]: > 100 µM | GI50 [43]: 18.1 µM | TGI [43]: > 100 µM | GI50 [44]: 6.98 µM | TGI [44]: 70.3 µM | GI50 [45]: 3.93 µM | TGI [45]: 21 µM | GI50 [46]: 7.97 µM | TGI [46]: 33.5 µM | GI50 [47]: 28.6 µM | TGI [47]: > 100 µM | GI50 [48]: 21.9 µM | TGI [48]: > 100 µM | GI50 [49]: 5.51 µM | TGI [49]: 27.7 µM | GI50 [50]: 21.5 µM | TGI [50]: > 100 µM | GI50 [16]: 31.9 µM | TGI [16]: > 100 µM | GI50 [51]: 4.69 µM | TGI [51]: 23.4 µM | GI50 [17]: 17 µM | TGI [17]: > 100 µM | GI50 [52]: 2.48 µM | TGI [52]: 7.37 µM | GI50 [53]: 1.02 µM | TGI [53]: 13.3 µM | GI50 [54]: 4.06 µM | TGI [54]: 29.6 µM | GI50 [55]: 5.31 µM | TGI [55]: > 100 µM
